According to patent US6642271B2, “Potentiating compounds” (Ardenia Investments, Ltd., priority 2001, dated 2003):

Experiments:
[1] = system: human breast adenocarcinoma MDA-MB-231 cell line; assay: Cytotoxicity: cell growth inhibition in cultures, viable cells counted by trypan blue exclusion; type: cell-based; settings: for inhibition at 0.04 µM / inhibition at 1 µM / inhibition at 0.1 µM / inhibition at 0.01 µM / inhibition at 0.001 µM / inhibition at 0.0001 µM / inhibition at 10 pM: Homo sapiens; for inhibition at 0.04 µM / inhibition at 1 µM / inhibition at 0.1 µM / inhibition at 0.01 µM / inhibition at 0.001 µM / inhibition at 0.0001 µM: MDA-MB-231, sodium salt in saline; for inhibition at 0.04 µM / inhibition at 1 µM / inhibition at 0.1 µM / inhibition at 0.01 µM / inhibition at 0.001 µM / inhibition at 0.0001 µM / inhibition at 10 pM / number of living cells / cell growth inhibition: day 1, three days; for inhibition at 1 µM / cell growth inhibition: final 10^−6 mol/L (top of range 10^−11 M to 10^−6 M); for inhibition at 10 pM: MDA-MB-231, sodium salt of the compound dissolved in saline (1 mg/ml); for Cell growth inhibition % Formulation: compound/paclitaxel formulations in saline; for Cell growth inhibition % OF W/SAB / Cell growth inhibition % OF SAB/W: dried compound/paclitaxel mixed-micellar system (OF); for Cell growth inhibition % OF W/SAB: freeze-dried as water solution, reconstituted with 0.05 M sodium acetate buffer; for Cell growth inhibition % OF SAB/W: freeze-dried in 0.05 M sodium acetate buffer, reconstituted with water
Procedure: The cell line was propagated by cultivation in Nunclon 25 cm^2 flasks (Nunc A/S, Denmark) in Minimum Essential Medium Eagle (MEM), containing antibiotics and supplemented with 10% (v/v) fetal bovine serum (FBS) (Sigma, St. Louis, Mo., USA). The cultures were maintained in growth medium at 37° C. in a humidified atmosphere, 95% air and 5% CO2.
A suspension of tumour cells (60×10^3 cells/mL) was prepared in MEM with 5% FBS and antibiotics. Cell suspension (200 μL) was seeded in wells of Nunclon 96-microwell plates (Nunc A/S, Denmark) at a density of 12×10^3 cell/well. The solutions of the drugs to be tested were added to the cultures on day 0 or day 1 in volumes of 2 μL. In all cases the cells were incubated for 3 days.
At the end of the incubation period, adherent cells were detached by trypsinization and the number of viable cells was counted using trypan blue dye exclusion test and a hemocytometer.
All experiments were performed at least twice and the cells counts were done in triplicate for each drug concentration. Each control and test series consisted of 6-8 cultures. The results are expressed as mean cell number ±SD and the differences between control and test series were evaluated by means of Student's t-test. The cytotoxicity of each tested drug was evaluated by the extent of cell growth inhibition. The Cell growth inhibition was evaluated as follows:
Cell growth inhibition, %=- - - ×100

[2] = Solubility of compounds and formulations; type: physicochemical; settings: for solubility in solvents: sodium salts
Procedure: The obtained solution can be stored for at least three months at low temperatures, without noticeable change in the properties of compound (I-VI). Moreover, the formulation retains its cytotoxic effects during prolonged storage. Before use, the solution is evaporated in vacuo to yield a waxy solid which is dissolved in saline or other commonly used vehicle for intravenous infusion to a patient. […] An ethanol solution is prepared of one of N-(all-trans-Retinoyl)-L-cysteic acid (I), N-(13-cis-Retinoyl)-L-cysteic acid (11), N-(all-trans-Retinoyl)-L-homocysteic acid (III), N-(13-cis-Retinoyl)-L-homocysteic acid (IV), N-(all-trans-Retinoyl)-L-cysteinesulfinic acid (V), or N-(13-cis-Retinoyl)-L-cysteinesulfinic acid (VI). The obtained solution is evaporated in vacuo to give waxy solid, whereupon Taxol® is added, dissolving the waxy solid. […]

[3] = final concentration 10^−11 mol/L
[4] = sodium salt in saline, final 4 × 10^−8 mol/L
[5] = sodium salt in saline, final 10^−6 mol/L
[6] = sodium salt in saline, final 10^−7 mol/L
[7] = sodium salt in saline, final 10^−8 mol/L
[8] = sodium salt in saline, final 10^−9 mol/L
[9] = sodium salt in saline, final 10^−10 mol/L
[10] = sodium salt of the compound dissolved in saline (1 mg/ml), final concentration 10^−11 mol/L

| solubility in the commercially available Taxol® preparation [2] | SMILES | inhibition at 0.04 µM ([1]; final 4 × 10^−8 mol/L) [%] | inhibition at 1 µM [1] [%] | inhibition at 0.1 µM ([1]; final 10^−7 mol/L) [%] | inhibition at 0.01 µM ([1]; final 10^−8 mol/L) [%] | inhibition at 0.001 µM ([1]; final 10^−9 mol/L) [%] | inhibition at 0.0001 µM ([1]; final 10^−10 mol/L) [%] | inhibition at 10 pM [1, 3] [%] | Cell growth inhibition % Formulation [1] | Cell growth inhibition % OF W/SAB [1] | Cell growth inhibition % OF SAB/W [1] | number of living cells [1, 4] | cell growth inhibition ([1]; sodium salt in saline) [%] | number of living cells [1, 5] | number of living cells [1, 6] | number of living cells [1, 7] | number of living cells [1, 8] | number of living cells [1, 9] | number of living cells [1, 10] | solubility in solvents [2] |
| --- | --- | --- | --- | --- | --- | --- | --- | --- | --- | --- | --- | --- | --- | --- | --- | --- | --- | --- | --- | --- |
| excellent solubility | CC1=C(/C=C/C(C)=C/C=C/C(C)=C\C(=O)N[C@@H](CCS(=O)(=O)O)C(=O)O)C(C)(C)CCC1 [Compound IV, N-(13-cis-Retinoyl)-L-homocysteic acid] | 29.6 | 31.9 | 31.1 | 24.9 | 17.3 | 16.1 | 14.8 | close to 60% | close to 62% | close to 63% | 37.1 ± 2.56 × 10^3 | ~35 | 35.9 ± 2.29 × 10^3 | 36.3 ± 2.08 × 10^3 | 39.6 ± 2.74 × 10^3 | 43.6 ± 3.21 × 10^3 | 44.2 ± 3.35 × 10^3 | 44.9 ± 3.02 × 10^3 | also dissolved in methanol and some methanol containing mixtures |
| excellent solubility | CC1=C(/C=C/C(C)=C/C=C/C(C)=C/C(=O)N[C@@H](CS(=O)O)C(=O)O)C(C)(C)CCC1 [Compound V, N-(all-trans-Retinoyl)-L-cysteinesulfinic acid] | 27.1 | 29.8 | 27.6 | 24.3 | 16.2 | 14.7 | 13.3 | close to 55% | close to 56% | close to 58% | 39.6 ± 1.75 × 10^3 | ~30 | 38.1 ± 1.86 × 10^3 | 39.3 ± 1.22 × 10^3 | 41.1 ± 2.34 × 10^3 | 45.5 ± 2.80 × 10^3 | 46.3 ± 2.49 × 10^3 | 47.1 ± 2.41 × 10^3 | soluble only in mixtures containing water |
| excellent solubility | CC1=C(/C=C/C(C)=C/C=C/C(C)=C\C(=O)N[C@@H](CS(=O)O)C(=O)O)C(C)(C)CCC1 [Compound VI, N-(13-cis-Retinoyl)-L-cysteinesulfinic acid] | 24.9 | 27.3 | 25.8 | 22.4 | 14 | 13.7 | 12.3 | close to 55% | close to 56% | close to 58% | 39.6 ± 2.70 × 10^3 | ~30 | 38.3 ± 2.34 × 10^3 | 39.1 ± 2.16 × 10^3 | 40.9 ± 2.88 × 10^3 | 45.3 ± 2.55 × 10^3 | 45.5 ± 2.68 × 10^3 | 46.2 ± 3.54 × 10^3 | soluble only in mixtures containing water |
